In ChEMBL document CHEMBL3885881, “DrugMatrix”:

Species: Rattus norvegicus
Format: toxicity, organism-based, Sprague-Dawley
Conditions: in vivo, po, route oral GAVAGE, […]; for ABSOLUTE EOSINOPHIL / ABSOLUTE LYMPHOCYTE / ABSOLUTE MONOCYTE / ABSOLUTE SEGMENTED NEUTROPHIL / BASOPHIL / EOSINOPHIL / ERYTHROCYTE COUNT / HEMATOCRIT / HEMOGLOBIN / LEUKOCYTE COUNT / LYMPHOCYTE / MEAN CORPUSCULAR HEMOGLOBIN / MEAN CORPUSCULAR HEMOGLOBIN CONCENTRATION / MEAN CORPUSCULAR VOLUME / MONOCYTE / NEUTROPHIL / NUCLEATED RED BLOOD CELLS / PLATELET COUNT: tissue Blood; for ALANINE AMINOTRANSFERASE / ALBUMIN / ALKALINE PHOSPHATASE / ASPARTATE AMINOTRANSFERASE / BLOOD UREA NITROGEN / CARBON DIOXIDE / CHLORIDE / CHOLESTEROL / CREATINE PHOSPHOKINASE / CREATININE / GLUCOSE / LACTATE DEHYDROGENASE / LIPASE / PHOSPHORUS / POTASSIUM / SODIUM / TOTAL BILIRUBIN / TOTAL PROTEIN / URIC ACID: tissue Plasma
[1] = 130 mg/kg, 24 h, dose level Low, time 1 day
[2] = 500 mg/kg, 6 h, dose level High, time 0.25 day
[3] = 500 mg/kg, 24 h, dose level High, time 1 day

Description: DrugMatrix - Regimen: Single

For `CCOC(=O)C(C)(C)Oc1ccc(Cl)cc1` [CLOFIBRATE], the “ABSOLUTE EOSINOPHIL” value [1] was 55.33 CELLS/uL, the “ABSOLUTE LYMPHOCYTE” value [1] was 15484.17 CELLS/uL and the “ABSOLUTE MONOCYTE” value [1] was 278.5 CELLS/uL. The “ABSOLUTE SEGMENTED NEUTROPHIL” value [1] was 965.33 CELLS/uL, the BASOPHIL [1] was 0% and the EOSINOPHIL [1] was 0.33%. The “ERYTHROCYTE COUNT” value [1] was 5.03 x10E6/uL, the HEMATOCRIT [1] was 32.6% and the HEMOGLOBIN [1] was 13.25 G/DL. The “LEUKOCYTE COUNT” value [1] was 16.78 x10E3/uL, the LYMPHOCYTE [1] was 92.17% and the “MEAN CORPUSCULAR HEMOGLOBIN” value [1] was 26.33 pg. For the same compound, the “MEAN CORPUSCULAR HEMOGLOBIN CONCENTRATION” value [1] was 40.65 G/DL, the “MEAN CORPUSCULAR VOLUME” value [1] was 64.78 fL and the MONOCYTE [1] was 1.67%. The NEUTROPHIL [1] was 5.83%, the “NUCLEATED RED BLOOD CELLS” value [1] was 0 /100WBC and the “PLATELET COUNT” value [1] was 862.83 x10E3/uL. The “ALANINE AMINOTRANSFERASE” value [1] was 67 u/L, the ALBUMIN [1] was 4.33 G/DL and the “ALKALINE PHOSPHATASE” value [1] was 318.17 u/L. For the same compound, the “ASPARTATE AMINOTRANSFERASE” value [1] was 75.17 u/L, the “BLOOD UREA NITROGEN” value [1] was 12.67 mg/dL and the “CARBON DIOXIDE” value [1] was 32 mmol/L. For the same compound, the CHLORIDE [1] was 100 MEQ/L, the CHOLESTEROL [1] was 47.33 mg/dL and the “CREATINE PHOSPHOKINASE” value [1] was 215.5 u/L. The CREATININE [1] was 0.16 mg/dL, the GLUCOSE [1] was 132.67 mg/dL and the “LACTATE DEHYDROGENASE” value [1] was 108.83 u/L. For the same compound, the LIPASE [1] was 10.5 u/L, the PHOSPHORUS [1] was 9.12 mg/dL and the POTASSIUM [1] was 6.21 MEQ/L. For the same compound, the SODIUM [1] was 142.78 MEQ/L, the “TOTAL BILIRUBIN” value [1] was 0.17 mg/dL and the “TOTAL PROTEIN” value [1] was 5.58 G/DL. The “URIC ACID” value [1] was 1.07 mg/dL, the “ABSOLUTE EOSINOPHIL” value [2] was 41.33 CELLS/uL and the “ABSOLUTE LYMPHOCYTE” value [2] was 7521 CELLS/uL. For the same compound, the “ABSOLUTE MONOCYTE” value [2] was 204.83 CELLS/uL, the “ABSOLUTE SEGMENTED NEUTROPHIL” value [2] was 899.5 CELLS/uL and the BASOPHIL [2] was 0%. For the same compound, the EOSINOPHIL [2] was 0.5%, the “ERYTHROCYTE COUNT” value [2] was 5.56 x10E6/uL and the HEMATOCRIT [2] was 35.4%. For the same compound, the HEMOGLOBIN [2] was 13.87 G/DL, the “LEUKOCYTE COUNT” value [2] was 8.67 x10E3/uL and the LYMPHOCYTE [2] was 86.5%. The “MEAN CORPUSCULAR HEMOGLOBIN” value [2] was 24.97 pg, the “MEAN CORPUSCULAR HEMOGLOBIN CONCENTRATION” value [2] was 39.18 G/DL and the “MEAN CORPUSCULAR VOLUME” value [2] was 63.73 fL. The MONOCYTE [2] was 2.33%, the NEUTROPHIL [2] was 10.67% and the “NUCLEATED RED BLOOD CELLS” value [2] was 0 /100WBC. For the same compound, the “PLATELET COUNT” value [2] was 1195.5 x10E3/uL, the “ALANINE AMINOTRANSFERASE” value [2] was 52.5 u/L and the ALBUMIN [2] was 4.53 G/DL. The “ALKALINE PHOSPHATASE” value [2] was 309.5 u/L, the “ASPARTATE AMINOTRANSFERASE” value [2] was 94.5 u/L and the “BLOOD UREA NITROGEN” value [2] was 9.33 mg/dL. For the same compound, the “CARBON DIOXIDE” value [2] was 22.5 mmol/L, the CHLORIDE [2] was 100.67 MEQ/L and the CHOLESTEROL [2] was 65.33 mg/dL. For the same compound, the “CREATINE PHOSPHOKINASE” value [2] was 333.17 u/L, the CREATININE [2] was 0.16 mg/dL and the GLUCOSE [2] was 130.33 mg/dL. The “LACTATE DEHYDROGENASE” value [2] was 146.83 u/L, the LIPASE [2] was 9.83 u/L and the PHOSPHORUS [2] was 11.68 mg/dL. The POTASSIUM [2] was 6.42 MEQ/L, the SODIUM [2] was 143.4 MEQ/L and the “TOTAL BILIRUBIN” value [2] was 0.18 mg/dL. For the same compound, the “TOTAL PROTEIN” value [2] was 6 G/DL, the “URIC ACID” value [2] was 1.37 mg/dL and the “ABSOLUTE EOSINOPHIL” value [3] was 42 CELLS/uL. For the same compound, the “ABSOLUTE LYMPHOCYTE” value [3] was 10953.5 CELLS/uL, the “ABSOLUTE MONOCYTE” value [3] was 221.67 CELLS/uL and the “ABSOLUTE SEGMENTED NEUTROPHIL” value [3] was 1432.83 CELLS/uL. For the same compound, the BASOPHIL [3] was 0%, the EOSINOPHIL [3] was 0.33% and the “ERYTHROCYTE COUNT” value [3] was 5.6 x10E6/uL. The HEMATOCRIT [3] was 35.22%, the HEMOGLOBIN [3] was 14.02 G/DL and the “LEUKOCYTE COUNT” value [3] was 12.65 x10E3/uL. The LYMPHOCYTE [3] was 86.83%, the “MEAN CORPUSCULAR HEMOGLOBIN” value [3] was 25.02 pg and the “MEAN CORPUSCULAR HEMOGLOBIN CONCENTRATION” value [3] was 39.8 G/DL. The “MEAN CORPUSCULAR VOLUME” value [3] was 62.93 fL, the MONOCYTE [3] was 1.67% and the NEUTROPHIL [3] was 11.17%. For the same compound, the “NUCLEATED RED BLOOD CELLS” value [3] was 0 /100WBC, the “PLATELET COUNT” value [3] was 1112.33 x10E3/uL and the “ALANINE AMINOTRANSFERASE” value [3] was 93.33 u/L. The ALBUMIN [3] was 4.55 G/DL, the “ALKALINE PHOSPHATASE” value [3] was 411.33 u/L and the “ASPARTATE AMINOTRANSFERASE” value [3] was 162.83 u/L. For the same compound, the “BLOOD UREA NITROGEN” value [3] was 11.67 mg/dL, the “CARBON DIOXIDE” value [3] was 33.5 mmol/L and the CHLORIDE [3] was 97.83 MEQ/L. For the same compound, the CHOLESTEROL [3] was 34.83 mg/dL, the “CREATINE PHOSPHOKINASE” value [3] was 245.67 u/L and the CREATININE [3] was 0.19 mg/dL. The GLUCOSE [3] was 137.17 mg/dL, the “LACTATE DEHYDROGENASE” value [3] was 114.17 u/L and the LIPASE [3] was 9.83 u/L. For the same compound, the PHOSPHORUS [3] was 10.23 mg/dL, the POTASSIUM [3] was 6.67 MEQ/L and the SODIUM [3] was 143.3 MEQ/L. The “TOTAL BILIRUBIN” value [3] was 0.25 mg/dL, the “TOTAL PROTEIN” value [3] was 5.77 G/DL and the “URIC ACID” value [3] was 1.18 mg/dL.
